Experimental data published in patent US10576057B2, “Methods for treating muscle wasting and degeneration diseases” (NEWTREE CO., LTD., priority 2015, dated 2020).

Columns and labels:
Wistar rats = assay: Muscle mass in TNF-α-induced muscular atrophy animal model; format: in vivo; settings: for increase in weight of muscle: 300 mg/kg body weight, 8 weeks, vs control group, p<0.01; for Average calf muscle weight: TNF-α-induced atrophy, 300 mg/kg body weight once a day for 8 weeks, right calf
Procedure: Five-week-old Wistar rats were adapted for 1 week and 100 ng/g of TNF-α was supplied for 2 weeks to induce muscular atrophy. Then, groups were randomly assigned on the basis of body weight and divided into five groups of 8 rats per each group. 500 mg/kg body weight of the ethanol extract of Mori Cortex Radicis prepared in Example 1-2, 500 mg/kg body weight of the hot-water extract of Mori Cortex Radicis prepared in Example 1-5, 300 mg/kg body weight of the morusin prepared in Example 2-1, and 300 mg/kg body weight of the kuwanon G prepared in Example 2-2 were suspended in 0.25% carboxymethylcellulose, respectively, followed by their administration on experimental groups once a day for 8 weeks at regular time. A control group was administered with TNF-α suspended in the same amount of 0.25% carboxymethyl cellulose ingested by the experimental groups.
After 8 weeks of administration, the muscles under the right calf were excised and weighed with microbalance (Mettler PE 160, USA).

p-p70S6K = p-p70S6K protein expression by western blot in L6 muscle cells; format: cell-based
Procedure: (§1) L6 myoblasts (ATCC, Manassas, Va., USA) were added to a 6-well plate with Dulbecco's modified Eagle's Media (DMEM; Hyclone) containing 10% fetal bovine serum (FBS; Hyclone, Logan, Utah, USA) at a concentration of 2×10^5 cells/mL. When the cell density reached about 80 to 85%, the medium in the wells was removed. […] Meanwhile, a group treated with 0.01% DMSO instead of the sample was used as a control group. This procedure was carried out for 6 days in two days to differentiate and then dissolved in NP-40 buffer solution (ELPIS-Biotech, Daejeon, Republic of Korea) containing proteinase inhibitor cocktail. The cells dissolved in the buffer solution were transferred to a 1.5-mL tube and centrifuged at 13,000 rpm for 10 minutes to take only a supernatant. The supernatant was quantified using Bradford (Bio-Rad Laboratories Inc., Hercules, Calif., USA). The quantified proteins were boiled for 5 minutes, separated by electrophoresis on 10% SDS-PAGE, and were transferred to the nitrocellulose membrane. A p-mTOR primary antibody (Cellular signaling technology, Beverly, Mass., USA) was diluted with 2.5% bovine serum albumin (BSA) at a ratio of 1:1000 and reacted with proteins transferred to the nitrocellulose membrane for 20 hours at room temperature. […]

MuRF-1 = MuRF-1 mRNA expression by RT-PCR in TNF-α-treated L6 muscle cells; format: cell-based; settings: differentiated L6 muscle cells, 50 ng/mL TNF-α
Procedure: (§2) L6 myoblast (ATCC) was added to a 6-well plate at 2×10^5 cells/ml together with DMEM (Hyclone) containing 10% FBS (Hyclone). When the cell density reached about 80% to 85%, the medium in the wells was removed and myotube differentiation was induced by treating the cells with DMEM (Hyclone) containing 2% HS (Hyclone). The medium was replaced with fresh medium every two days and the differentiation was carried out for a total of 6 days. After differentiation, 0.1 μM and 1 μM of morusin prepared in Example 2-1 were respectively dissolved in DMEM (Hyclone) containing 50 ng/mL tumor necrosis factor alph (TNF-α; PeproTech, Rocky Hills, N.J., USA), followed by their treatment on the cells. After 6 hours, total RNA was isolated using TRIzol reagent (Invitrogen). The isolated total RNA was quantified using NanoDrop 1000 (Thermo Fisher Scientific Inc.). The quantified 16 μL of RNA was synthesized into cDNA using Reverse Transcriptase Premix (ELPIS-Biotech) and PCR machine (Gene Amp PCR System 2700: Applied Biosystems) at 42° C. for 55 minutes and at 70° C. for 15 minutes. The PCR was performed by repeating 30 cycles at 95° C. for 30 seconds, at 60° C. for 1 minute and at 72° C. for 1 minute with 4 μl of 16 μl cDNA, the following specific primers (Bioneer), and PCR premix (ELPIS-Biotech): […]

myogenin = myogenin mRNA expression by RT-PCR in L6 muscle cells; format: cell-based; settings: 6 days
Procedure: (§3) Muscle cells, L6 myoblasts (ATCC) were added to a 6-well plate at 2×10^5 cells/ml together with DMEM (Hyclone) containing 10% FBS (Hyclone). When the cell density reached about 80 to 85%, the medium in the wells was removed. […] Meanwhile, a group treated with 0.01% DMSO instead of the sample was used as a control group. This procedure was carried out for 6 days in two days to differentiate and total RNA was isolated using TRIzol reagent (Invitrogen. Carlsbad, Calif., USA). The isolated total RNA was quantified using NanoDrop 1000 (Thermo Fisher Scientific Inc., MA, USA). Quantified 16 μL of RNA was synthesized into cDNA using Reverse Transcriptase Premix (ELPIS-Biotech) and PCR machine (Gene Amp PCR System 2700: Applied Biosystems, MA, USA) at 42° C. for 55 minutes and 70° C. for 15 minutes. 4 μL out of 16 μL cDNA was amplified by PCR using the following specific primers (Bioneer, Daejeon, Republic of Korea) and PCR premix (ELPIS-Biotech). PCR was performed by repeating 30 cycles of 95° C. for 30 seconds, 60° C. for 1 minute, and 72° C. for 1 minute.
(§4) PCR-amplified cDNA was separated by electrophoresis on 1.5% agarose gel and cDNA band was identified using G:BOX EF imaging system (Syngene).
(§5) L6 myoblast (ATCC) were cultured in the same manner as in Example 7. […]

p-4EBP1 = p-4EBP1 protein expression by western blot in L6 muscle cells; format: cell-based
Procedure: as §1

atrogin-1 = atrogin-1 mRNA expression by RT-PCR in TNF-α-treated L6 muscle cells; format: cell-based; settings: differentiated L6 muscle cells, 50 ng/mL TNF-α
Procedure: as §2

p-mTOR = p-mTOR protein expression by western blot in L6 muscle cells; format: cell-based; settings: 5 μM, differentiation 6 days, vs 0.01% DMSO control
Procedure: L6 myoblasts (ATCC, Manassas, Va., USA) were added to a 6-well plate with Dulbecco's modified Eagle's Media (DMEM; Hyclone) containing 10% fetal bovine serum (FBS; Hyclone, Logan, Utah, USA) at a concentration of 2×10^5 cells/mL. When the cell density reached about 80 to 85%, the medium in the wells was removed. The ethanol extract of Mori Cortex Radicis (20 μg/mL) prepared in Example 1-2, the hot water extract of Mori Cortex Radicis (20 μg/mL) prepared in Example 1-5, the morusin (5 μM) and the kuwanon G (5 μM) isolated and purified in Example 2 were dissolved in DMEM (Hyclone) containing 2% HS (Hyclone), followed by its treatment to the cells to induce myotube differentiation. Meanwhile, a group treated with 0.01% DMSO instead of the sample was used as a control group. This procedure was carried out for 6 days in two days to differentiate and then dissolved in NP-40 buffer solution (ELPIS-Biotech, Daejeon, Republic of Korea) containing proteinase inhibitor cocktail. The cells dissolved in the buffer solution were transferred to a 1.5-mL tube and centrifuged at 13,000 rpm for 10 minutes to take only a supernatant. The supernatant was quantified using Bradford (Bio-Rad Laboratories Inc., Hercules, Calif., USA). The quantified proteins were boiled for 5 minutes, separated by electrophoresis on 10% SDS-PAGE, and were transferred to the nitrocellulose membrane. […]

MyoD = MyoD mRNA expression by RT-PCR in L6 muscle cells; format: cell-based; settings: 6 days
Procedure: as §3, §4, §5

| SMILES | increase in weight of muscle (Wistar rats) | Average calf muscle weight (Wistar rats) | expression of p-p70S6K protein (p-p70S6K; 1 μM and 5 μM) | mRNA expression of MuRF-1 (MuRF-1; concentration not given) | expression of myogenin mRNA (myogenin; 1 μM and 5 μM) | expression of p-4EBP1 protein (p-4EBP1; 1 μM and 5 μM) | mRNA expression of atrogin-1 (atrogin-1; concentration not given) | expression of p-mTOR (p-mTOR) | expression of MyoD mRNA (MyoD; 1 μM and 5 μM) | expression of p-p70S6K protein (p-p70S6K; 0.1 and 1 μM) | mRNA expression of MuRF-1 (MuRF-1; 0.1 μM and 1 μM, 6 hours) | expression of myogenin mRNA (myogenin; 0.1 and 1 μM) | expression of p-4EBP1 protein (p-4EBP1; 0.1 and 1 μM) | mRNA expression of atrogin-1 (atrogin-1; 0.1 μM and 1 μM, 6 hours) | expression of MyoD mRNA (MyoD; 0.1 and 1 μM) |
| --- | --- | --- | --- | --- | --- | --- | --- | --- | --- | --- | --- | --- | --- | --- | --- |
| CC(C)=CCc1c(-c2ccc(O)cc2O)oc2c([C@H]3C=C(C)C[C@@H](c4ccc(O)cc4O)[C@@H]3C(=O)c3ccc(O)cc3O)c(O)cc(O)c2c1=O [Kuwanon G, 8-[(1S,5R,6S)-6-(2,4-Dihydroxybenzoyl)-5-(2,4-dihydroxyphenyl)-3-methyl-2-cyclohexen-1-yl]-2-(2,4-dihydroxyphenyl)-5,7-dihydroxy-3-(3-methyl-2-buten-1-yl)-4H-chromen-4-one] | 22.60% | 537 ± 15.2 mg | increased | decreased | increased | increased | decreased | increased | increased |  |  |  |  |  |  |
| CC(C)=CCc1c(-c2ccc(O)cc2O)oc2c3c(cc(O)c2c1=O)OC(C)(C)C=C3 [Morusin, 2-(2,4-Dihydroxyphenyl)-5-hydroxy-8,8-dimethyl-3-(3-methyl-2-buten-1-yl)-4H,8H-benzo[1,2-b:3,4-b′]dipyran-4-one] | 23.97% | 543 ± 32.9 mg |  |  |  |  |  | increased |  | increased | decreased | increased | increased | decreased | increased |
